Measured values published in patent US12419832B2, “Intratumoral delivery of bortezomib” (Cognos Therapeutics, Inc., priority 2018, dated 2025).
Entries after “also recorded” stand apart in the source; their conditions may differ. Like-named read-outs stand apart in the source and are kept apart here.

Assays:
20S proteasome = 20S proteasome activity assay on lysates of tumor-bearing brains; assay type: in vivo, mice; settings: IT 3.6 μg total, Alzet pump
Method: FIG. 5. […] Animals were treated by intratumorally administration of bortezomib (3.6 μg total) using the Alzet pump. After 5, 7 or 10 days, animals were euthanized, tumor-bearing brains were harvested, and lysates prepared for the proteasome activity assay. Control values were obtained from vehicle-treated brains at 5, 7, and 10 days.
Brain lysates were prepared by homogenization of tumor-bearing brains in phosphate-buffered saline. Supernatants were collected by centrifugation at 12,000 rpm for 15 minutes at 4° C. Total protein concentration was measured by the BCA protein assay, and 100 μg of total protein was used to measure proteasome activity. The 20S proteasome assay kit (EMD Millipore) was used according to manufacturer's instructions. The assay is based on detection of fluorophore 7-amino-4-methylcoumarin (AMC) after cleavage from the labeled substrate LLVYAMC. The free AMC fluorescence was quantified using 380-nm excitation and 460-nm emission filters.

[1] = tested on: U87 glioma cells implanted subcutaneously; experiment: Subcutaneous glioma xenograft tumor model, U87; assay type: in vivo, athymic nude mice; settings: 0.3 mg/kg (36 μg total), vs vehicle
Method: (§1) FIGS. 2A-2B. […] FIG. 2A: Glioma cells (U251) were implanted subcutaneously into athymic nu/nu mice. Fourteen days later, intravenous treatment was initiated: vehicle treatment (circle); bortezomib (36 μg total) (square). Subsequently animals were left untreated for 14 days. […] FIG. 2B: Glioma cells (U87) were implanted subcutaneously in athymic nude mice. Bortezomib was administered at a total dose of 36 μg by intravenous injection beginning on Day 30 post-implantation.
(§2) The animal protocol was approved by the institutional animal care and use committee of the University of Southern California. All mice were maintained in a pathogen-free environment throughout the experiment. For the subcutaneous tumor xenograft model, 5×10^5 human glioma cells (U87, U251, and LN229) suspended in a volume of 50 μl phosphate-buffered saline were implanted into the right flank of 30 athymic nude mice (Harlan, Inc.). Tumors were palpable approximately 2-3 weeks post-implantation. The animals were divided randomly into 5 groups of 6 mice, and treatment was initiated according to protocol.

[2] = tested on: glioma stem cells and normal stem cells; settings: cited from earlier work
[3] = Dose escalation, intracerebral osmotic mini-pump, normal nontumor-bearing mice
Method: The doses of bortezomib used in these experiments were determined by injecting escalating doses of the drug intracerebrally (delivered by osmotic mini-pump) into normal, nontumor-bearing mice. […] In FIG. 4, treatment groups (n=6) were vehicle (saline-filled pump); bortezomib given IV (36 μg in total); bortezomib IT (low dose, 0.36 μg); bortezomib IT (medium dose, 1.2 μg); and bortezomib IT (high dose, 3.6 μg).

[4] = tested on: intracranial glioma tumor; experiment: Histological investigation of tumor-bearing brains (H & E, TRA 1-85); assay type: in vivo, mice
Method: FIG. 6. […] Tumor-bearing animals were treated with intratumoral-administered bortezomib (A) or IV-administered-bortezomib (B). After 5 days the animals were euthanized, brains harvested, and stained with hematoxylin/eosin.
Tissues used for histological investigation were fixed in 10% formalin, embedded in paraffin, and stained with H & E. The antibody TRA-1-85/CD147 (RD Systems) was used to stain for human cells.

[5] = tested on: human glioma cells (U251, LN229, U87); experiment: MTT cytotoxicity assay on glioma cells; assay type: cell-based; settings: Glioma cell, 3 cell lines (U251, LN229, U87), 48 hours, read-out: median inhibitory concentrations (IC50)
Method: Glioma cells (U251, LN229, U87) were treated with bortezomib (0-25 nM) for 48 hours. Cell death was evaluated using the MTT assay. O.D.=optical density.
Human glioma cells (U87, U251, and LN229) were cultured in DMEM, supplemented with 10% fetal bovine serum and 1% penicillin-streptomycin, and incubated in 5% CO2. Bortezomib (Velcade) was purchased from the University of Southern California/Norris Comprehensive Cancer Center pharmacy. Bortezomib has been approved by the FDA for clinical use. The sterile 14-day Alzet mini-osmotic pump (model 2002) was used in these experiments. The Alzet mini-osmotic pump has a reservoir volume of 200 μl and a delivery rate of 0.5 μl/hour. The brain infusion kit, which includes the pump and distribution tubing, was purchased from DURECT Corporation.
Glioma cells (5000 cells/well) were seeded in 96-well plates. After 24 hours, bortezomib was added to the cells at different concentrations, and the cells were incubated for 48 hours. The monotetrazolium (MTT) assay was performed according to the manufacturer's protocol (Calbiochem EMD, Millipore). Absorbance was measured using a microtiter plate reader (Molecular Devices) at 490 nm. Percent viability was calculated relative to untreated control cells. All experiments were performed in triplicate.

[6] = tested on: U251 glioma cells implanted subcutaneously; experiment: Subcutaneous glioma xenograft tumor model, U251; assay type: in vivo, athymic nu/nu mice; settings: IV 0.3 mg/kg twice per week (36 μg total), vs vehicle
Method: as §1, §2

[7] = tested on: U87 glioma cells implanted intracranially; experiment: Orthotopic intracranial glioma model, U87, survival; assay type: in vivo, athymic nude mice; settings: IV 36 μg total
Method: (§3) FIGS. 3A-3B. […] Human glioma cells U251 (FIG. 3A) or U87 (FIG. 3B) were implanted intracranially; subsequently, mice were given bortezomib (36 μg total) (square) or vehicle (circle) IV. The brain tumor size was monitored by optical imaging weekly, and animal survival data were analyzed by Kaplan-Meier plot.
(§4) Briefly, athymic nude mice were anesthetized with ketamine and xylazine (10 mg/kg) and fixed into a stereotactic head frame (Harvard Apparatus). A 1.5-mm bur hole was drilled 1 mm anterior to the coronal suture on the right hemisphere and 2 mm lateral from the midline. A Hamilton syringe fixed onto the head frame was used to inject human glioma cells (2×10^5 cells/5 μl) into the right frontal lobe of the brain. The skin incision was then closed with 4-0 silk thread. The appropriate medications were provided to reduce pain.
Seven to 10 days after tumor cell implantation, imaging was used to confirm brain tumor formation. Briefly, mice were anesthetized using 2% isoflurane gas and injected intravenously (IV) with 50 mg/kg of D-Luciferin (Perkin Elmer) and placed into the IVIS Spectrum (Caliper Life Sciences). Analysis was performed with Living Image software (Caliper Life Sciences), in which circular regions of interest drawn over the tumor site were used, and results were reported as total flux (photons/second). […]

malignant gliomas / GBM = settings: cited from earlier work
[8] = tested on: U251 glioma cells implanted intracranially; experiment: Orthotopic intracranial glioma model, U251, survival; assay type: in vivo, athymic nude mice; settings: for median survival time: IT pump, control 23 days
Method: as §3
FIG. 4. Bortezomib (BZM) administered intratumorally (IT) is effective in increasing survival. Glioma cells (U251) were implanted intracranially. After 10 days, animals were treated IT with vehicle; bortezomib IV (36 μg total); bortezomib IT (low dose, 0.36 μg total); bortezomib IT (medium dose, 1.2 μg total); and bortezomib IT (high dose, 3.6 μg total). […] CED=convection-enhanced delivery.
as §4
Seven to 10 days after tumor cell implantation, imaging was used to confirm brain tumor formation. Briefly, mice were anesthetized using 2% isoflurane gas and injected intravenously (IV) with 50 mg/kg of D-Luciferin (Perkin Elmer) and placed into the IVIS Spectrum (Caliper Life Sciences). Analysis was performed with Living Image software (Caliper Life Sciences), in which circular regions of interest drawn over the tumor site were used, and results were reported as total flux (photons/second). Based on total flux, animals were randomly divided into experimental groups.
Once tumors were identified, approximately 7 days after intracranial tumor cell implantation, Alzet mini-osmotic pumps were filled with the desired dose of reagent and implanted. A plastic tube primed with the agent was used to connect the infusion kit to the brain. The assembled delivery system was stored at 4° C. overnight before implantation. Bortezomib was delivered into the tumor using the Alzet mini-osmotic pumps.
To anchor the pump to the animal, an incision was made in the scalp alongside the previous surgical scar. The caudal edge of the incision was pulled, and the connective tissues were separated. Subsequently a subcutaneous tunnel was prepared. The Alzet mini-osmotic pump was pushed backward to adjust the location of the brain infusion kit directly above the hole in the skull that had been previously drilled for tumor cell implantation. The infusion kit (plastic tubing) was gently inserted into the formed tumor. The plastic platform end was fixed onto the skull by using instant super glue. The area around the skin incision was sterilized and sutured with 4-0 silk thread. The contents of the Alzet mini-osmotic pump were released into the tumor at a rate of […]. The treatment groups (6 mice per group) were listed as the following: 1) pump-administered vehicle (saline); 2) bortezomib (0.3 mg/kg=36 μg in total) given by intravenous injection; 3) low-dose bortezomib (0.003 mg/kg=0.36 μg in total) intracranial pump delivery; 4) medium-dose bortezomib (0.01 mg/kg=1.2 μg in total) intracranial pump delivery; and 5) high-dose bortezomib (0.03 mg/kg=3.6 μg in total) intracranial pump delivery. In summary, bortezomib was administered for 14 days, either IV at 0.3 mg/kg twice weekly (total 4 injections in 14 days), or continuously into the intracranial tumor bed by using the Alzet mini-osmotic pump. After the treatment was completed (14 days), animals were left untreated until the appearance of neurological and behavioral abnormalities requiring euthanasia. Animals treated with vehicle received saline by Alzet mini-osmotic pump.
Survival data were plotted using the Kaplan-Meier method. […]

**Q.** For `CC(C)C[C@H](NC(=O)[C@H](Cc1ccccc1)NC(=O)c1cnccn1)B(O)O` [bortezomib, [(1R)-3-methyl-1-[[(2S)-3-phenyl-2-(pyrazine-2-carbonylamino)propanoyl]amino]butyl]boronic acid], which “proteasome activity in tumor-bearing brain vs vehicle” value (“proteasome activity … vs vehicle” for short) (20S proteasome; 5 days, p=0.03) is on record?
**A.** significantly reduced proteasome activity

**Q.** What about the “proteasome activity … vs vehicle” value (20S proteasome; 7 days, p=0.03) of the same compound?
**A.** significantly reduced proteasome activity

**Q.** And the “proteasome activity … vs vehicle” value (20S proteasome; 10 days, p=0.0048)?
**A.** significantly reduced proteasome activity

**Q.** What about the “tumor growth rate / tumor progression” value [1] of the same compound?
**A.** delayed tumor progression

**Q.** What about the “tumor growth rate / tumor progression” value ([1]; listed as Bortezomib) of the same compound?
**A.** significantly (p=0.041) decreased tumor growth rate

**Q.** And the cytotoxicity ([2]; glioma stem cells)?
**A.** cytotoxic

**Q.** And the cytotoxicity ([2]; normal stem cells)?
**A.** not toxic

**Q.** And the toxicity ([3]; 7.2 μg)?
**A.** toxic and fatal

**Q.** And the toxicity ([3]; 18.0 μg)?
**A.** toxic and fatal

**Q.** What about the toxicity ([3]; 36.0 μg) of the same compound?
**A.** toxic and fatal

**Q.** What about the “tumor size (surface area), IV-treated animal relative to intratumoral-treated animal” value ([4]; Day 5, IV 36 μg total vs IT 3.6 μg total, H & E) of the same compound?
**A.** approximately ten-fold larger

**Q.** And the “tumor cell invasion into mouse brain, IV-treatment compared to IT-treated” value ([4]; anti-human antibody TRA 1-85 staining)?
**A.** greater tumor cell invasion

**Q.** And the “microvessel densities vs vehicle-treated mice” value ([4]; data not shown)?
**A.** not significantly different

**Q.** What about the IC50 [5] of the same compound?
**A.** 5 to 10 nM

**Q.** And the tumor growth rate [6]?
**A.** significantly effective in delaying tumor growth

**Q.** And the tumor growth rate ([6]; listed as Bortezomib)?
**A.** significantly (p=0.0145) decreased tumor growth rate

**Q.** And the survival vs vehicle [7]?
**A.** no significant differences

**Q.** And the “therapeutic benefit, Phase II trial” value (malignant gliomas / GBM; combination with tamoxifen, systemic, patients with malignant gliomas)?
**A.** no therapeutic benefit

**Q.** And the “benefit, Phase II clinical trial” value (malignant gliomas / GBM; combination with vorinostat, bortezomib IV, GBM)?
**A.** no benefit

**Q.** And the increase in survival ([8]; IT administration, median survival 23 to 37 days)?
**A.** approximately 40%

**Q.** What about the “survival, IT vs IV (36 μg)” value ([8]; U251 intracranial, IT high dose 3.6 μg total, p=0.0022) of the same compound?
**A.** significantly enhanced survival

**Q.** And the “survival, IT vs IV (36 μg)” value ([8]; U251 intracranial, IT low dose 0.36 μg total, p=0.1104)?
**A.** not significant

**Q.** What about the “survival, IT vs IV (36 μg)” value ([8]; U251 intracranial, IT medium dose 1.2 μg total, p=0.0005) of the same compound?
**A.** significantly enhanced survival

**Q.** And the median survival time ([8]; U251 intracranial, high dose 3.6 μg total)?
**A.** 37 days

**Q.** And the median survival time ([8]; U251 intracranial, medium dose 1.2 μg total)?
**A.** 34 days

**Q.** What about the survival vs vehicle ([8]; U251 intracranial, IV 0.3 mg/kg (36 μg total), 0.3 mg/kg) of the same compound?
**A.** no significant differences in survival time; also recorded: not significant
